We go through 16 compounds from ChEMBL document CHEMBL4477164, “Domino Synthesis of Embelin Derivatives with Antibacterial Activity” (2016).

The source made the active and inactive calls. The calls are words filed in the database; no cut-off is given here. Some results are limits rather than exact numbers.

The subject of one assay is Pseudomonas aeruginosa. As to the kind of experiment: Antibacterial activity against Pseudomonas aeruginosa assessed as bacterial growth inhibition after 24 hrs by broth dilution method. The class given is functional, organism-based.
The test system of assay [1] is Staphylococcus aureus. Nature of the assay: Antibacterial activity against vancomycin/methicillin-sensitive Staphylococcus aureus ATCC 25923 assessed as bacterial growth inhibition after 24 hrs by broth dilution method. Type of assay: functional. Conditions: ATCC 25923, 24 h.
In assay [2] the test system is Staphylococcus aureus. As to the kind of experiment: Antibacterial activity against vancomycin-intermediate/methicillin-resistant Staphylococcus aureus NRS402 assessed as bacterial growth inhibition after 24 hrs by broth dilution method. The class given is functional. Particulars: NRS402, 24 h.
Another assay deals with Escherichia coli. As to the kind of experiment: Antibacterial activity against Escherichia coli assessed as bacterial growth inhibition after 24 hrs by broth dilution method. The class given is functional, organism-based.

For `CCCCCCCCCCCC1=C(O)C(=O)C2=C(OC(C)(C)[C@H]3CC[C@H](C)C[C@H]23)C1=O`, the outcome in the assay with Pseudomonas aeruginosa and in the assay on Escherichia coli was inactive. Further, the figures for the MIC in the assay on Staphylococcus aureus [1] and in the assay with Staphylococcus aureus [2] were 8 µM and 1 µM, respectively.

Take `CCCCCCCCCCCC1=C(O)C(=O)C([C@H]2[C@H](C)CC[C@@H]2C(C)(C)OCC)=C(O)C1=O` (racemic): the result in the assay on Pseudomonas aeruginosa and in the assay with Escherichia coli was inactive. Moreover, the MIC in the assay with Staphylococcus aureus [1] and in the assay with Staphylococcus aureus [2] was more than 128 µM each time.

With `CCCCCCCCCCCC1=C(O)C(=O)C2=C(OC(C)(C)[C@H]3CC[C@@H](C)[C@H]23)C1=O` (racemic), the result with Pseudomonas aeruginosa and in the assay with Escherichia coli was inactive. The MIC in the assay with Staphylococcus aureus [1] stood at 64 µM; with Staphylococcus aureus [2] it was 4 µM.

On to `CCCCCCCCCCCC1=C(O)C(=O)C2=C(OC(C)(C)[C@@H]3COc4ccc5ccccc5c4[C@H]23)C1=O` (racemic), for which the outcome in the assay with Pseudomonas aeruginosa and in the assay on Escherichia coli was inactive. The MIC with Staphylococcus aureus [1] and in the assay on Staphylococcus aureus [2] was more than 128 µM each time.

As for `CCCCCCCCCCCC1=C(O)C(=O)C2=C(OC(C)(C)[C@H]3COc4ccc(OCC=C(C)C)cc4[C@H]23)C1=O` (relative stereo), the outcome in the assay with Pseudomonas aeruginosa and with Escherichia coli was inactive. For the same compound, the MIC with Staphylococcus aureus [1] and in the assay on Staphylococcus aureus [2] was more than 128 µM in each case.

For the compound `CCCCCCCCCCCC1=C(O)C(=O)C2=C(OC(C)(C)[C@H]3COc4cc(OC)ccc4[C@H]23)C1=O` (relative stereo), the outcome with Pseudomonas aeruginosa and in the assay with Escherichia coli was inactive. Further, the MIC amounted to 64 µM with Staphylococcus aureus [1] and 4 µM with Staphylococcus aureus [2].

Consider `CCCCCCCCCCCC1=C(O)C(=O)C2=C(OC(C)(C)[C@@H]3COc4cc(OC)ccc4[C@H]23)C1=O` (relative stereo), for which the outcome with Pseudomonas aeruginosa and in the assay with Escherichia coli was inactive. Further, the MIC with Staphylococcus aureus [1] amounted to 8 µM; with Staphylococcus aureus [2] it was 1 µM.

Regarding `CCCCCCCCCCCC1=C(O)C(=O)C2=C(OC(C)(C)[C@@H]3COc4ccc(Br)cc4[C@H]23)C1=O` (relative stereo), the result in the assay with Pseudomonas aeruginosa and in the assay with Escherichia coli was inactive. For the same compound, the MIC amounted to 16 µM with Staphylococcus aureus [1] and 32 µM in the assay on Staphylococcus aureus [2].

For the compound `CCCCCCCCCCCC1=C(O)C(=O)C2=C(OC(C)(C)[C@H]3COc4ccc(Br)cc4[C@H]23)C1=O` (relative stereo), the result in the assay on Pseudomonas aeruginosa and with Escherichia coli was inactive. Further, the MIC in the assay on Staphylococcus aureus [1] came out at 16 µM; with Staphylococcus aureus [2] it was 32 µM.

As to `CCCCCCCCCCCC1=C(O)C(=O)C2=C(OC(C)(C)[C@H]3COc4ccc(Cl)cc4[C@H]23)C1=O` (relative stereo), the outcome with Pseudomonas aeruginosa and in the assay on Escherichia coli was inactive. Besides, the MIC worked out at 4 µM with Staphylococcus aureus [1] and 2 µM with Staphylococcus aureus [2].

In the case of `CCCCCCCCCCCC1=C(O)C(=O)C2=C(OC(C)(C)[C@@H]3COc4ccc(OCC=C(C)C)cc4[C@H]23)C1=O` (relative stereo), the outcome in the assay with Pseudomonas aeruginosa and with Escherichia coli was inactive. For the same compound, the MIC with Staphylococcus aureus [1] and with Staphylococcus aureus [2] was more than 128 µM each time.

Take `CCCCCCCCCCCC1=C(O)C(=O)C2=C(OC(C)(C)[C@@H]3COc4ccc(Cl)cc4[C@H]23)C1=O` (relative stereo): the outcome in the assay on Pseudomonas aeruginosa and in the assay with Escherichia coli was inactive. The MIC came out at 4 µM in the assay on Staphylococcus aureus [1] and 1 µM in the assay with Staphylococcus aureus [2].

`CCCCCCCCCCCC1=C(O)C(=O)C=C(O)C1=O` [EMBELIN]: the result with Pseudomonas aeruginosa and in the assay with Escherichia coli was inactive. The figures for the MIC in the assay on Staphylococcus aureus [1] and with Staphylococcus aureus [2] were 32 µM and 16 µM, respectively.

For `C/C(=C\C(=O)OCCCCCCCCC(=O)O)C[C@@H]1OC[C@H](C[C@@H]2O[C@H]2[C@@H](C)[C@H](C)O)[C@@H](O)[C@H]1O` [MUPIROCIN], the MIC in the assay on Staphylococcus aureus [1] and with Staphylococcus aureus [2] was less than 1 µg/mL each time.

`Cc1onc(-c2ccccc2)c1C(=O)N[C@@H]1C(=O)N2[C@@H]1SC(C)(C)[C@@H]2C(=O)O` [OXACILLIN]: the MIC with Staphylococcus aureus [1] is less than 1 µg/mL; in the assay with Staphylococcus aureus [2], more than 128 µg/mL.

Take `CN[C@H](CC(C)C)C(=O)N[C@H]1C(=O)N[C@@H](CC(N)=O)C(=O)N[C@H]2C(=O)N[C@H]3C(=O)N[C@H](C(=O)N[C@H](C(=O)O)c4cc(O)cc(O)c4-c4cc3ccc4O)[C@H](O)c3ccc(c(Cl)c3)Oc3cc2cc(c3O[C@@H]2O[C@H](CO)[C@@H](O)[C@H](O)[C@H]2O[C@H]2C[C@](C)(N)[C@H](O)[C@H](C)O2)Oc2ccc(cc2Cl)[C@H]1O` [VANCOMYCIN]: the MIC with Staphylococcus aureus [1] was less than 1 µg/mL.
